The numbers were not newly measured in US4285947A, “Aldehyde adducts of triamterene” (INTERx Research Corporation, priority 1980, dated 1981), which cites them from elsewhere.

As a reminder, the aqueous solubility is the concentration that dissolves in the medium under given conditions.

For series [1] the following is noted: following the recommended clinical dose.
Experiment in series [2]: not given
This is another data set of the same source.

Each structure is given as a SMILES string. In brackets after ≈: the same amount, converted by molar mass.

Regarding `Nc1nc(N)c2nc(-c3ccccc3)c(N)nc2n1` [triamterene, 2,4,7-triamino-6-phenylpteridine], the “solubility in lipid-like solvents” value was “limited solubility”. Besides, the “plasma and urine concentration” value in series [1] is “extremely low”. Also, in series [2], the aqueous solubility was 45 µg/mL (≈ 178 µM).
